Data published in article PMC8279409, “Novel Mixed NOP/Opioid Receptor Peptide Agonists” (Journal of Medicinal Chemistry, 2021).
Like-named read-outs stand apart in the source and are kept apart here. Where a SMILES comes first, the peptide text is derived from it. [ ]: non-standard residue; d: D form. Bip = N[C@@H](Cc1ccc(-c2ccccc2)cc1)C(=O)O; Dip = N[C@H](C(=O)O)C(c1ccccc1)c1ccccc1; Phe(4-NH2) = Nc1ccc(C[C@H](N)C(=O)O)cc1; 1Nal = N[C@@H](Cc1cccc2ccccc12)C(=O)O; 2Nal = N[C@@H](Cc1ccc2ccccc2c1)C(=O)O; Dmt = Cc1cc(O)cc(C)c1C[C@H](N)C(=O)O; Phg = N[C@H](C(=O)O)c1ccccc1

Key:
human mu receptor = target: T1, human mu receptor (Homo sapiens, UniProt P35372); assay: Calcium mobilization, mu opioid receptor; assay type: cell-based; details: for mu pEC50 (CL95%): Table 2 series, CHO cells coexpressing human mu receptor and Gαqi5, Fluo-4 AM, 37 °C, mean of at least three experiments in duplicate, CL95% in brackets; for Emax / activation at 10 µM: percent over the baseline fluorescence, SEM; for Emax: mean ± SEM of at least three experiments in duplicate; for pEC50_mu: molecular formula strings CSV, repeats calcium mobilization values of Tables 1-3; for activation at 10 µM: read-out: mu effect at 10 μM (crc incomplete), Table 2 series, mean ± SEM
T1 construct: expressed in transfected cells; host or cells: CHO cells stably coexpressing the receptor and chimeric Gαqi5
T1 sequence (P35372 whole entry): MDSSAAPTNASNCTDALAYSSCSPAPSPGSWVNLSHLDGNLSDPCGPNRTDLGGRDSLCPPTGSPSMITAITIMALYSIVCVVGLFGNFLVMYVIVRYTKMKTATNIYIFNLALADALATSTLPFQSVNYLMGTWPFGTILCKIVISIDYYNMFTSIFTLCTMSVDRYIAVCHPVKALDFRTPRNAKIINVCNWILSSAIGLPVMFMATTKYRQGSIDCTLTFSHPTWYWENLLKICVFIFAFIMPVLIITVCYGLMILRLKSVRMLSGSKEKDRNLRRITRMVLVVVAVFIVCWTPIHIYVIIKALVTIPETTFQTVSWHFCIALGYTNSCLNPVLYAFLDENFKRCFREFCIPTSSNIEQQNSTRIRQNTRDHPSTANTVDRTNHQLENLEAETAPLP

human NOP receptor = target: T2, human NOP receptor (Homo sapiens, UniProt P41146); assay: Calcium mobilization, NOP receptor; assay type: cell-based; details: for NOP pEC50 (CL95%) / NOP/mu CR (concentration ratio): Table 2 series; for NOP pEC50 (CL95%): CHO cells coexpressing human NOP and Gαqi5, Fluo-4 AM, 37 °C, mean of at least three experiments in duplicate, CL95% in brackets; for NOP/mu CR (concentration ratio): calcium mobilization, NOP versus mu; for Emax: percent over the baseline fluorescence, mean ± SEM of at least three experiments in duplicate, SEM
T2 construct: expressed in transfected cells; host or cells: CHO cells stably coexpressing the receptor and chimeric Gαqi5
T2 sequence (P41146 whole entry): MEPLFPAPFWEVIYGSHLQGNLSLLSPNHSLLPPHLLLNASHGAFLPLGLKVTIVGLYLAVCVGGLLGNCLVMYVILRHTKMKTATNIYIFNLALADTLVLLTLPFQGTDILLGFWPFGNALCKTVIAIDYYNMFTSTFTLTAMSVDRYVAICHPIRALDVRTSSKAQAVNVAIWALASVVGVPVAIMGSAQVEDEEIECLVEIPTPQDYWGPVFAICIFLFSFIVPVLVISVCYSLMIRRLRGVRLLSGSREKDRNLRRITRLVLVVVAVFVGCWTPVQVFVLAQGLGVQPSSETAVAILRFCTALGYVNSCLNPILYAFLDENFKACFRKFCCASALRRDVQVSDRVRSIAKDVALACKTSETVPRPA
Protocol: CHO cells stably coexpressing the human NOP or kappa or the mu receptor and the C-terminally modified Gαqi5 and CHO cells coexpressing the delta receptor and the GαqG66Di5 protein were generated and cultured as described previously.[45],[46] Cells were maintained in Dulbecco’s modified Eagle’s medium/nutrient mixture F-12 (DEMEM/F-12) supplemented with 10% FBS, 100 U/mL penicillin and 100 μg/mL streptomycin, 100 μg/mL hygromicin B, and 200 μg/mL G418 and cultured at 37 °C in 5% CO2 humidified air. Cells were seeded at a density of 50,000 cells/well into 96-well black, clear-bottom plates. The following day, the cells were incubated with Hanks’ balanced salt solution (HBSS) supplemented with 2.5 mM probenecid, 3 μM of the calcium-sensitive fluorescent dye Fluo-4 AM, and 0.01% pluronic acid for 30 min at 37 °C. After that time, the loading solution was aspirated and 100 μL/well of HBSS supplemented with 20 mM HEPES, 2.5 mM probenecid, and 500 μM brilliant black was added. Serial dilutions were carried out in HBSS/HEPES (20 mM) buffer (containing 0.02% BSA fraction V). After placing both plates (cell culture and master plate) into the fluorometric imaging plate reader FlexStation II (Molecular Devices, Sunnyvale, CA), fluorescence changes were measured. On-line additions were carried out in a volume of 50 μL/well. To facilitate drug diffusion into the wells, the present studies were performed at 37 °C. Maximum change in fluorescence, expressed as percent over the baseline fluorescence, was used to determine agonist response.
The pharmacological terminology adopted in this paper is consistent with IUPHAR recommendations.[59] All data are expressed as the mean ± standard error of the mean (SEM) of at least three experiments performed in duplicate. […] Concentration-response curves to agonists were fitted to the classical four-parameter logistic nonlinear regression model:
Effect = Baseline + (Emax – Baseline)/(1 + 10^(LogEC50 – Log[compound]) × Hillslope). Curve fitting was performed using PRISM 6.0 (GraphPad Software Inc., San Diego).

[1] = read-out: mu Emax ± S.E.M., Table 2 series
[2] = read-out: NOP Emax ± S.E.M., Table 2 series
[3] = read-out: mu Emax ± S.E.M., Table 3 series
[4] = read-out: NOP Emax ± S.E.M., Table 3 series

Row | Compound | mu pEC50 (CL95%) (human mu receptor) | Emax (human mu receptor; [1]) [%] | NOP pEC50 (CL95%) (human NOP receptor) | NOP/mu CR (concentration ratio) (human NOP receptor) | Emax (human NOP receptor; [2]) [%] | Emax (human mu receptor; [3]) [%] | Emax (human NOP receptor; [4]) [%] | further results
1 | C[C@H](NC(=O)CNC(=O)[C@@H](NC(=O)[C@H](Cc1ccccc1)NC(=O)CNC(=O)CNC(=O)[C@@H](N)Cc1ccc(O)cc1)C(c1ccccc1)c1ccccc1)C(=O)N[C@@H](CCCNC(=N)N)C(=O)N[C@@H](CCCCN)C(=O)N[C@@H](CO)C(=O)N[C@@H](C)C(=O)N[C@@H](CCCNC(=N)N)C(=O)N[C@@H](CCCCN)C(N)=O [Compound 23, [Tyr^1,Dip^5]N/OFQ(1-13)-NH2] (H-YGGF[Dip]GARKSARK-NH2) | 6.78 (6.28–7.27) | 331 ± 32 | 6.61 (6.13–7.09) | 1.48 | 240 ± 26 |  |  | 
2 | C[C@H](NC(=O)CNC(=O)[C@H](Cc1ccc(-c2ccccc2)cc1)NC(=O)[C@H](Cc1ccccc1)NC(=O)CNC(=O)CNC(=O)[C@@H](N)Cc1ccc(O)cc1)C(=O)N[C@@H](CCCNC(=N)N)C(=O)N[C@@H](CCCCN)C(=O)N[C@@H](CO)C(=O)N[C@@H](C)C(=O)N[C@@H](CCCNC(=N)N)C(=O)N[C@@H](CCCCN)C(N)=O [Compound 24, [Tyr^1,Bip^5]N/OFQ(1-13)-NH2] (H-YGGF[Bip]GARKSARK-NH2) | crc incomplete; 10 μM: 151 ± 66 |  | 6.93 (6.63–7.22) | 0.15 | 272 ± 29 |  |  | pEC50_mu (human mu receptor): crc incomplete; activation at 10 µM (human mu receptor): 151 ± 66%
3 | C[C@H](NC(=O)CNC(=O)[C@H](Cc1cccc2ccccc12)NC(=O)[C@H](Cc1ccccc1)NC(=O)CNC(=O)CNC(=O)[C@@H](N)Cc1ccc(O)cc1)C(=O)N[C@@H](CCCNC(=N)N)C(=O)N[C@@H](CCCCN)C(=O)N[C@@H](CO)C(=O)N[C@@H](C)C(=O)N[C@@H](CCCNC(=N)N)C(=O)N[C@@H](CCCCN)C(N)=O [Compound 25, [Tyr^1,1Nal^5]N/OFQ(1-13)-NH2] (H-YGGF[1Nal]GARKSARK-NH2) | 6.08 (5.67–6.49) | 319 ± 31 | 7.17 (6.82–7.52) | 0.08 | 245 ± 16 |  |  | 
4 | C[C@H](NC(=O)CNC(=O)[C@H](Cc1ccc2ccccc2c1)NC(=O)[C@H](Cc1ccccc1)NC(=O)CNC(=O)CNC(=O)[C@@H](N)Cc1ccc(O)cc1)C(=O)N[C@@H](CCCNC(=N)N)C(=O)N[C@@H](CCCCN)C(=O)N[C@@H](CO)C(=O)N[C@@H](C)C(=O)N[C@@H](CCCNC(=N)N)C(=O)N[C@@H](CCCCN)C(N)=O [Compound 26, [Tyr^1,2Nal^5]N/OFQ(1-13)-NH2] (H-YGGF[2Nal]GARKSARK-NH2) | crc incomplete; 10 μM: 244 ± 10 |  | 6.82 (6.60–7.04) | 0.19 | 266 ± 15 |  |  | pEC50_mu (human mu receptor): crc incomplete; activation at 10 µM (human mu receptor): 244 ± 10%
5 | C[C@H](NC(=O)CNC(=O)[C@H](Cc1ccc(N)cc1)NC(=O)[C@H](Cc1ccccc1)NC(=O)CNC(=O)CNC(=O)[C@@H](N)Cc1ccc(O)cc1)C(=O)N[C@@H](CCCNC(=N)N)C(=O)N[C@@H](CCCCN)C(=O)N[C@@H](CO)C(=O)N[C@@H](C)C(=O)N[C@@H](CCCNC(=N)N)C(=O)N[C@@H](CCCCN)C(N)=O [Compound 27, [Tyr^1,(pNH2)Phe^5]N/OFQ(1-13)-NH2] (H-YGGF[Phe(4-NH2)]GARKSARK-NH2) |  | 329 ± 37 |  |  | 274 ± 15 |  |  | 
6 | Cc1cc(O)cc(C)c1C[C@H](NC(=O)[C@H](Cc1ccccc1)NC(=O)CNC(=O)CNC(=O)[C@@H](N)Cc1ccc(O)cc1)C(=O)NCC(=O)N[C@@H](C)C(=O)N[C@@H](CCCNC(=N)N)C(=O)N[C@@H](CCCCN)C(=O)N[C@@H](CO)C(=O)N[C@@H](C)C(=O)N[C@@H](CCCNC(=N)N)C(=O)N[C@@H](CCCCN)C(N)=O [Compound 28, [Tyr^1,Dmt^5]N/OFQ(1-13)-NH2] (H-YGGF[Dmt]GARKSARK-NH2) |  | 301 ± 35 |  |  | 251 ± 22 |  |  | 
7 | Cc1cc(O)cc(C)c1C[C@H](N)C(=O)NCC(=O)NCC(=O)N[C@@H](Cc1ccccc1)C(=O)N[C@H](C(=O)NCC(=O)N[C@@H](C)C(=O)N[C@@H](CCCNC(=N)N)C(=O)N[C@@H](CCCCN)C(=O)N[C@@H](CO)C(=O)N[C@@H](C)C(=O)N[C@@H](CCCNC(=N)N)C(=O)N[C@@H](CCCCN)C(N)=O)[C@@H](C)O [Compound 29, [Dmt^1]N/OFQ(1-13)-NH2, reference compound] |  |  |  |  |  | 311 ± 20 | 294 ± 22 | 
8 | Cc1cc(O)cc(C)c1C[C@H](N)C(=O)NCC(=O)NCC(=O)N[C@@H](Cc1ccccc1)C(=O)N[C@@H](Cc1ccc(O)cc1)C(=O)NCC(=O)N[C@@H](C)C(=O)N[C@@H](CCCNC(=N)N)C(=O)N[C@@H](CCCCN)C(=O)N[C@@H](CO)C(=O)N[C@@H](C)C(=O)N[C@@H](CCCNC(=N)N)C(=O)N[C@@H](CCCCN)C(N)=O [Compound 30, [Dmt^1,Tyr^5]N/OFQ(1-13)-NH2] (H-[Dmt]GGFYGARKSARK-NH2) |  |  |  |  |  | 410 ± 25 | 304 ± 21 | 
9 | Cc1cc(O)cc(C)c1C[C@H](N)C(=O)NCC(=O)NCC(=O)N[C@@H](Cc1ccccc1)C(=O)N[C@@H](Cc1ccccc1)C(=O)NCC(=O)N[C@@H](C)C(=O)N[C@@H](CCCNC(=N)N)C(=O)N[C@@H](CCCCN)C(=O)N[C@@H](CO)C(=O)N[C@@H](C)C(=O)N[C@@H](CCCNC(=N)N)C(=O)N[C@@H](CCCCN)C(N)=O [Compound 31, [Dmt^1,Phe^5]N/OFQ(1-13)-NH2] (H-[Dmt]GGFFGARKSARK-NH2) |  |  |  |  |  | 335 ± 22 | 277 ± 28 | 
10 | Cc1cc(O)cc(C)c1C[C@H](N)C(=O)NCC(=O)NCC(=O)N[C@@H](Cc1ccccc1)C(=O)N[C@H](C(=O)NCC(=O)N[C@@H](C)C(=O)N[C@@H](CCCNC(=N)N)C(=O)N[C@@H](CCCCN)C(=O)N[C@@H](CO)C(=O)N[C@@H](C)C(=O)N[C@@H](CCCNC(=N)N)C(=O)N[C@@H](CCCCN)C(N)=O)c1ccccc1 [Compound 32, [Dmt^1,Phg^5]N/OFQ(1-13)-NH2] (H-[Dmt]GGF[Phg]GARKSARK-NH2) |  |  |  |  |  | 339 ± 28 | 282 ± 12 | 
11 | Cc1cc(O)cc(C)c1C[C@H](N)C(=O)NCC(=O)NCC(=O)N[C@@H](Cc1ccccc1)C(=O)N[C@@H](Cc1cccc2ccccc12)C(=O)NCC(=O)N[C@@H](C)C(=O)N[C@@H](CCCNC(=N)N)C(=O)N[C@@H](CCCCN)C(=O)N[C@@H](CO)C(=O)N[C@@H](C)C(=O)N[C@@H](CCCNC(=N)N)C(=O)N[C@@H](CCCCN)C(N)=O [Compound 33, [Dmt^1,1Nal^5]N/OFQ(1-13)-NH2] (H-[Dmt]GGF[1Nal]GARKSARK-NH2) |  |  |  |  |  | 349 ± 20 | 286 ± 19 | 
12 | Cc1cc(O)cc(C)c1C[C@H](N)C(=O)NCC(=O)NCC(=O)N[C@@H](Cc1ccccc1)C(=O)N[C@@H](Cc1ccc(N)cc1)C(=O)NCC(=O)N[C@@H](C)C(=O)N[C@@H](CCCNC(=N)N)C(=O)N[C@@H](CCCCN)C(=O)N[C@@H](CO)C(=O)N[C@@H](C)C(=O)N[C@@H](CCCNC(=N)N)C(=O)N[C@@H](CCCCN)C(N)=O [Compound 34, [Dmt^1,(pNH2)Phe^5]N/OFQ(1-13)-NH2] (H-[Dmt]GGF[Phe(4-NH2)]GARKSARK-NH2) |  |  |  |  |  | 358 ± 15 | 258 ± 20 | 
13 | Cc1cc(O)cc(C)c1C[C@H](NC(=O)[C@H](Cc1ccccc1)NC(=O)CNC(=O)CNC(=O)[C@@H](N)Cc1c(C)cc(O)cc1C)C(=O)NCC(=O)N[C@@H](C)C(=O)N[C@@H](CCCNC(=N)N)C(=O)N[C@@H](CCCCN)C(=O)N[C@@H](CO)C(=O)N[C@@H](C)C(=O)N[C@@H](CCCNC(=N)N)C(=O)N[C@@H](CCCCN)C(N)=O [Compound 35, [Dmt^1,5]N/OFQ(1-13)-NH2] (H-[Dmt]GGF[Dmt]GARKSARK-NH2) |  |  |  |  |  | 354 ± 16 | 270 ± 25 | 
